The values that follow come from PMC13184981, “Discovery and Development of a Potent LIMK2 Isoform-Specific Degrader” (ACS Chemical Biology, 2026).

Experiment [1] has as its target T1, FLAG-tagged CRBN with MOLT-4 cell lysate (Homo sapiens, UniProt P53671+Q96SW2).
T1 construct: LIMK2: endogenous, MOLT-4 cell lysate
The experiment can be described thus: PROXICapture pull-down proteomics. The format is binding. As to conditions: 5 μM PROTAC. Here is the method:
Purified FLAG-CRBN was conjugated to FLAG beads (Chromotek, cat. no. ffak) in coimmunoprecipitation buffer (50 mM Tris pH-7.5, 120 mM NaCl, 1% NP40, 0.5 mM EDTA) for 1 h at 4 °C on a rotating shaker, before addition of DMSO or 5 μM THNAN69 for 30 min at 4 °C. Subsequently, ∼ 1 mg of freshly prepared protein lysate from Molt4 cells was added to the prepared beads in IP lysate buffer (50 mM Tris pH-7.5, 120 mM NaCl, 1% NP40, 0.5 mM EDTA, protease inhibitors, phosphatase inhibitors and NEM) for 1 h at 4 °C while rotating. The beads were washed three times with IP buffer and afterward used either for Western blotting or trypsin digestion followed by LC-MS/MS analysis.
Protein-bound flag-CRBN beads were incubated with 20 μL SDC buffer (3% sodium deoxycholate in 50 mM Tris-HCl, pH 8.5) and heated for 5 min at 65 °C, and the supernatant was collected. This step was repeated one more time to get an elute of 40 μL. Further, reduction and alkylation were performed using 5 μL of 5 mM TCEP, 20 mM CAA in 50 mM Tris-HCl, pH 8.5, at 95 °C for 10 min. 500 ng of trypsin in 45 μL 50 mM Tris-HCl (pH 8.5) was added to each sample and kept for digestion at 37 °C overnight. […]
MS raw data were analyzed using FragPipe v21.1, with MSFragger v.4.0 and Philosopher v.5.1.0. […] Label-free quantification was performed using IonQuant v.1.10.27. […]

Experiment [2] addresses T2, NanoLuc-tagged LIMK1 and Halo-tagged CRBN (Homo sapiens, UniProt P53667+Q96SW2).
T2 construct: CRBN vector in-house NV3391; host or cells: HEK293T
Briefly: NanoBRET cellular ternary complex formation, LIMK1. The format is cell-based. The text has this:
(§1) Next, we assessed ternary complex formation for the parent and lead PROTACs in live cells using the NanoBRET proximity assay. A ternary complex assay system was established using NanoLuc-tagged LIMKs and Halo-tagged CRBN. Formation of the ternary complex upon PROTAC addition was quantified by measuring the BRET signal. […] However, they differed in the strength of the ternary complex. […] We also confirmed the differences in ternary complex strength using the orthogonal PROXICapture approach, in which MOLT-4 cell lysate was passed over immobilized FLAG-tagged CRBN preincubated with THNAN69.
(§2) Gene encoding LIMK1 (Promega, NV3391) and LIMK2 (Promega, NV1531) proteins cloned in frame with NanoLuc fusion tag at the C-Terminus and gene encoding cereblon (generated in-house) cloned in frame with Halo Tag at the N-Terminus, were used to measure the end-point ternary complex formation between the PROTACs and LIMK1 and LIMK2, respectively. […] To measure BRET, NanoBRET NanoGlo Substrate + Extracellular NanoLuc Inhibitor (Promega, N2162) was added to cells as per the manufacturer’s protocol, and filtered luminescence was measured on a PHERAstar FSX plate reader (BMG Labtech) equipped with a luminescence filter pair (450 nm BP filter (donor) and 610 nm LP filter (acceptor)). […]
Background: Bioluminescence resonance energy transfer reports proximity on the nanometre scale.

For experiment [3], the target named is T3, NanoLuc-tagged LIMK2 and Halo-tagged CRBN (Homo sapiens, UniProt P53671+Q96SW2).
T3 construct: CRBN vector in-house NV1531; host or cells: HEK293T
The experiment can be described thus: NanoBRET cellular ternary complex formation, LIMK2. The format is cell-based.
Excerpt: as §1, §2

SMILES strings stand for the structures.

For orientation: EC50 means the concentration at which the effect is half-maximal.

T3 sequence (P53671 whole entry): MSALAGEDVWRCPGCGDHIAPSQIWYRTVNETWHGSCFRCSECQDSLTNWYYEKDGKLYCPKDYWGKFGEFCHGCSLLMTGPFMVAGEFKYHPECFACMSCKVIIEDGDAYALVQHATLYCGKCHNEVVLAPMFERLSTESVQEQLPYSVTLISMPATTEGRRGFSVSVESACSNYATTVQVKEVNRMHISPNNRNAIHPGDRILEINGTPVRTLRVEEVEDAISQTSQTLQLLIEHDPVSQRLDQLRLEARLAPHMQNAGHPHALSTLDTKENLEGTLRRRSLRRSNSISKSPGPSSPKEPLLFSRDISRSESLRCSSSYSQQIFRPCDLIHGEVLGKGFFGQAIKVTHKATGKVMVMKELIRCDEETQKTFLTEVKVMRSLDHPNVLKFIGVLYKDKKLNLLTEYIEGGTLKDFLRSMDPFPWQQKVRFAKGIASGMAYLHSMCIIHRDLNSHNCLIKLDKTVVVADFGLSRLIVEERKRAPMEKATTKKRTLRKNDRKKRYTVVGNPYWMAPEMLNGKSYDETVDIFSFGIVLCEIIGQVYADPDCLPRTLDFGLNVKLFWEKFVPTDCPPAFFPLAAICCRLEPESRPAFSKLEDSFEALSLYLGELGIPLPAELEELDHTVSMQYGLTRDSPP
T3 sequence (Q96SW2 whole entry): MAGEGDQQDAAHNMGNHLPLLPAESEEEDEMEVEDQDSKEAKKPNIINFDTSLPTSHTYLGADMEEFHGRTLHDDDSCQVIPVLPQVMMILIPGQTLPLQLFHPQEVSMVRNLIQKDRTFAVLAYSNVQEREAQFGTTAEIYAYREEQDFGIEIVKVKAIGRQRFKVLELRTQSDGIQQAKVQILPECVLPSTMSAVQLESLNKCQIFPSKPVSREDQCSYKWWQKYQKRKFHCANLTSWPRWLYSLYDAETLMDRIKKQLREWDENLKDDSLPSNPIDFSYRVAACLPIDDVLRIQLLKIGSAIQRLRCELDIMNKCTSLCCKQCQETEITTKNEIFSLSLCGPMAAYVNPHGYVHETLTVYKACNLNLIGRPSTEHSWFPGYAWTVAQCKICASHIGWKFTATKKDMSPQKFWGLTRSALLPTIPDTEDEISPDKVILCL
T3 sequence (Q16531 whole entry partner): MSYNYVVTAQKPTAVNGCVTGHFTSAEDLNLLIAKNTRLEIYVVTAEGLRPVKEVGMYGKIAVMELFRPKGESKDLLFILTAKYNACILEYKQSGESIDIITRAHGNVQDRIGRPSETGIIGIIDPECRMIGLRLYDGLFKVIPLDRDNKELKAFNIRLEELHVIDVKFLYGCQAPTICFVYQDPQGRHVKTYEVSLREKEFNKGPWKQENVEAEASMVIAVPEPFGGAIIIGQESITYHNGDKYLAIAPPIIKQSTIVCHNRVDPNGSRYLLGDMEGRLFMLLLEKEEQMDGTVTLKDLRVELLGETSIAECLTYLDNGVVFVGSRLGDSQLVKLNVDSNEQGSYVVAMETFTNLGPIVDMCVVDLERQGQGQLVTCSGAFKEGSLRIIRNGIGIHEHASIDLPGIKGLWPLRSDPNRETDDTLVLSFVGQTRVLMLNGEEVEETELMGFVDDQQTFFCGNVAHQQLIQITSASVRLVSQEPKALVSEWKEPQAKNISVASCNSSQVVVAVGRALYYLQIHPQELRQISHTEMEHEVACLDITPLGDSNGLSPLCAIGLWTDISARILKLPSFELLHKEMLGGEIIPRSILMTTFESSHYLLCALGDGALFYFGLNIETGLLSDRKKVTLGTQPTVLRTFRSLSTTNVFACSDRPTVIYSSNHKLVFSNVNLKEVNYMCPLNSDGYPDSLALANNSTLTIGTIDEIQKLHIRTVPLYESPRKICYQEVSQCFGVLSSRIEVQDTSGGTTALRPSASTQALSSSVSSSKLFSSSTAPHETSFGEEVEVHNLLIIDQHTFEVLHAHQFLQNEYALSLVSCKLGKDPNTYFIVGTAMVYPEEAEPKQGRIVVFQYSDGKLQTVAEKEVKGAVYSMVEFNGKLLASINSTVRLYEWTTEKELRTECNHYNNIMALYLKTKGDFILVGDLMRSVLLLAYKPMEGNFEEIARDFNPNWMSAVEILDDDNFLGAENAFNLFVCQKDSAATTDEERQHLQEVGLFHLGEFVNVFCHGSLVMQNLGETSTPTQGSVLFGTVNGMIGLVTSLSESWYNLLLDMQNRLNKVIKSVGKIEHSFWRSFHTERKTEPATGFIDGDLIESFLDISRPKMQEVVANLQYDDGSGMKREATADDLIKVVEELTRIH
T1 sequence (Q96SW2 whole entry): as the sequence (Q96SW2 whole entry) above
T1 sequence (P53671 whole entry): as the sequence (P53671 whole entry) above
T2 sequence (P53667 whole entry): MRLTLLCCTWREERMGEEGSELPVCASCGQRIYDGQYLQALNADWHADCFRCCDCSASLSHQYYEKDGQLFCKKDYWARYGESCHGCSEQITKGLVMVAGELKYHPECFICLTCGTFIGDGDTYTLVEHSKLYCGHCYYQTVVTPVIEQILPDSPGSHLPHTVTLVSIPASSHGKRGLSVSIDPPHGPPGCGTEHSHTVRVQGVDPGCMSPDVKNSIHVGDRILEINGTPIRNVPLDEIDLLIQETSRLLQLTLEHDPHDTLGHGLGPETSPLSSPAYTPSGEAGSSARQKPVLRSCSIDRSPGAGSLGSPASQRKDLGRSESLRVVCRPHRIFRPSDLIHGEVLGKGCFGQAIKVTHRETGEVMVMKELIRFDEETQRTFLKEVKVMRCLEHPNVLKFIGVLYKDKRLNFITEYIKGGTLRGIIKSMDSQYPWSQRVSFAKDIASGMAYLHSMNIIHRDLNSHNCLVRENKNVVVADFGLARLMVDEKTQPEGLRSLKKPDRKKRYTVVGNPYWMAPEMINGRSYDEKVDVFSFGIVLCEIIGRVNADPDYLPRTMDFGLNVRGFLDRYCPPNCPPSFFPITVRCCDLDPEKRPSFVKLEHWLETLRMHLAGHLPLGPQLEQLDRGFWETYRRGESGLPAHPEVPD
T2 sequence (Q96SW2 whole entry): as the sequence (Q96SW2 whole entry) above
T2 sequence (Q16531 whole entry partner): as the sequence (Q16531 whole entry partner) above

On to `Cc1c(OCc2cn(CCCCC(=O)Nc3ncc(-c4cc(C(F)F)nn4-c4c(Cl)cccc4Cl)s3)nn2)cccc1N1CCC(=O)NC1=O` [22b], for which the “proteins enriched by CRBN:PROTAC pull-down” value in experiment [1] is “selectively recruited and enriched LIMK2 but not LIMK1”. The EC50 in experiment [2] worked out at 0.3 µM; in experiment [3], 0.077 µM.
